US20260007652A1, “Selective Modulators of AhR-Regulated Transcription and Method for Using Such Modulators to Treat Cancer” (OREGON STATE UNIVERSITY, priority 2022, published 2026)

What was measured:
[1] = tested on: primary human mammary epithelial cells (HMECs) and MCF10A; assay: Cell viability, primary human mammary epithelial cells (HMECs) and MCF10A; type: cell-based; conditions: 72-hour exposure
Description: (§1) Viability assays were performed by seeding cells at a density of 2000 cells per well in 96-well plates, and the following day, treating with compounds for 48 or 72 hours as indicated. Viability was determined by ATP-based Cell-Titer Glo Viability Assay (Promega, Madison WI). Luminescence was measured using the Tropix TR717 microplate luminometer. Viability of treated cells was determined by relativizing to vehicle (0.1-0.3% DMSO) treated wells. For profiling the activity of Analog 523 against the panel of triple-negative breast cancer cell lines, 72-hour treatments are represented.
All cell lines, except for the ST1 and ST2 cells were purchased from ATCC, and maintained in 5% CO2, at 37° C., in DMEM or RPMI media containing 10% FBS, and 1% penicillin/streptomycin. All HCC-cell lines were maintained in RPMI. All MDA-cell lines were maintained in DMEM. ZR-75I cells were maintained in RPMI. SKBR3 cells were maintained in DMEM. MCF10A cells were maintained in DMEM/F12 medium with the following supplements added: 5% horse serum, 20 ng/mL epidermal growth factor, […] hydrocortisone, 100 ng/mL cholera toxin, 10 μg/mL insulin, 1% Pen/Strep. Primary human mammary epithelial cells (HMECs) were obtained from Lonza Biosciences (Basel, Switzerland) and were maintained according to the specified culture protocols in Clonetics™ Mammary Epithelial Basal Medium (Lonza). […]

MDA-MB-468 cells [2] = assay: Cell-Titer Glo viability assay, MDA-MB-468 AhR WT and AhR KO cells; type: cell-based, human
Description: as §1
Analogs of 11-Cl-BBQ were synthesized by Praxis Precision Medicines. Screening was performed using MDA-MB-468 AhR WT and AhR KO cells previously described. Cells were seeded in 10% serum or 2% serum containing media with 1% Pen/Strep at a density of 2000 cell/well in 96-well plates. 20 hours post-seeding, cells were treated with 0.1 μM, 1 μM, or 10 μM of each analog (final DMSO concentration 0.1%-0.2%). After 48 and 72 hours, cells were harvested. The ATP-Based CellTiter Glo Assay kit (Promega, Madison, WI) was used for measuring cell viability.

[3] = tested on: SKBR-3 HER2+ breast cancer cells; assay: Cell viability assay, SKBR-3 HER2+ breast cancer cells; type: cell-based, human; conditions: 72 hours
Description: as §1

HCC70 cells = assay: Cell viability assay, HCC70 TNBC cells; type: cell-based, human
Description: as §1

AhR = assay: Xenobiotic response element (XRE) driven reporter in Hepa-1 cells, AhR activation; type: cell-based, mouse; conditions: 16 hours
Description: FIGS. 69A-69D show representative 11-Cl-BBQ analogs (848 and 849) as non-classical AHR ligands. (A) Stability of AHR protein in the H460 whole cell lysate in the presence or absence of 11-Cl-BBQ (5 μM), PRXS-848 (10 μM), and PRXS-849 (10 μM) at the indicated temperatures; GADPH was used as a loading control. (B) Localization of AHR protein in the H460 treated with 11-Cl-BBQ (100 nM), PRXS-848 (250 nM), PRXS-849 (250 nM), or vehicle control (0.1% DMSO) for two hours; top horizontal panel: AHR protein staining using an AHR-specific antibody conjugated with FITC (green) fluorophore; middle panel: DAPI staining; bottle panel: overlaid images from the top panel and the middle panel in the same column. (C) AHR activation (measured by XRE-luciferase reporter assay in Hepa1 cells) of the parental lead 11-Cl-BBQ and analogs PRXS-848 and PRXS-849 at the indicated concentrations for 16 hours. (D) AHR activation of 11-Cl-BBQ cotreated with a known AHR antagonist CH223191 (1 μM) or 11-Cl-BBQ analogs PRXS-848 and PRXS-849 at the indicated concentrations for 16 hours.
FIG. 76 presents representative AhR compounds (BBQ analogs) of the invention effective for activation of AhR transcription. Activation values greater than 1 at 100 nM were considered a hit with nanomolar affinity to promote AhR activity and synergize with the identified compounds from the synergy screens. Referring to FIG. 76, Fold@ 1 nM refers to activation of AhR transcription at 1 nM; Fold@100 nM refers to activation of AbR transcription at 100 nM; and Fold rel @ 100 refers to relative activation at 100 nM compared to parental compound, 11-Cl-BBQ. The representative AhR ligand compounds presented in FIG. 76 activate AhR transcription and therefore are useful as anti-cancer agents, either alone or in combination with the synergizing compounds (and chemotherapeutic agents) described herein.
was identified as a top hit compound based on its potent (>50% inhibition at 0.1 μM), and selective activity against AhR WT cells versus AhR KO cells (>70% difference between WT and KO cells at 10 μM) (FIG. 11). […] This confirmed Analog 523 activates AhR-mediated transcription and functions as an AhR ligand.

HCC1187 cells = assay: Cell viability assay, HCC1187 TNBC cells; type: cell-based, human
Description: as §1

[4] = rats; cited from earlier work
ST2 cells = assay: Cell viability assay, TNBC stem cells ST2; type: cell-based; conditions: Homo sapiens, ST-2; 100 nM; 48 hours
Description: as §1
ST1 and ST2 cells were cultured in Mammary epithelial growth medium (Biowhitakker) (Lonza), with the following supplements: Epidermal growth factor (20 ng/mL) (Sigma), basic fibroblast growth factor (20 ng/mL) (BD Biosciences), Heparin (4 μg/mL) (Sigma), B27 Supplement (Invitrogen), Penicillin/Streptomycin (Omega), Gentamycin (35 μg/mL) (Sigma). Cells were gently passaged with Accutase solution. The isolation and characterization of the ST1 and ST2 lines have been previously described (Strietz et al., 2021).

MDA-MB-468 cells [5] = assay: Transcriptional profiling by RNA-Seq, MDA-MB-468 AhR WT cells; type: cell-based, human; conditions: 250 nM
Description: MDA-MB-468 AhR WT and AhR KO cells were seeded in 10 cm plates (3.5 million cells/plate) and allowed to attach overnight. The following day, media was replaced with fresh media containing 250 nM of Analog 523 or Vehicle (0.1% DMSO). Treatments were performed in triplicate. At 4 hours and 12 hours post-treatment, samples were harvested by addition of 700 μL of TRK-Lysis buffer and RNA isolation then performed according to the manufacturer's instructions (E.Z.N.A. Total RNA Kit, Omega Bio-Tek, Norcross, GA). Samples were quantified and 260/280 and 260/230 values inspected by NanoDrop. Samples were then sent for quality control, library preparation (poly-A enrichment) and sequencing at Novogene. Sequencing was performed with 150 bp paired-end reads to a depth of 20 million reads […].

For `O=c1c2cccc3cccc(c32)c2nc3ccccc3n12` [Analog 523, 7H-benzimidazo[2,1-a]benzo[de]isoquinolin-7-one], the “inhibition of cell viability in normal mammary epithelial cells” value ([1]; 10 μM) was roughly 20%, the “cytotoxicity in normal mammary epithelial cells” value ([1]; 0.01-10 μM) was “did not induce any cytotoxicity” and the “difference between WT and KO cells (cell viability)” value (MDA-MB-468 cells [2]; 10 μM, AhR WT versus AhR KO) was greater than 70%. The percent inhibition of cell viability at 0.1 µM (MDA-MB-468 cells [2]; Homo sapiens, 0.1 μM, AhR WT MDA-MB-468 cells) was greater than 50%, the IC50 (MDA-MB-468 cells [2]; Homo sapiens, MDA-MB-468, 72-hour treatment) was 41.2 nM and the “inhibition (cell viability)” value (MDA-MB-468 cells [2]; at <0.5 μM, 72 hours) was greater than 50%. The “concentrations at which cell line was sensitive (viability)” value [3] was greater than 1 µM, the IC50 (HCC70 cells; Homo sapiens, HCC70, 72-hour treatment) was 153 nM and the “inhibition (cell viability)” value (HCC70 cells; at <0.5 μM, 72 hours) was greater than 50%. For the same compound, the “receptor activation (XRE reporter)” value (AhR; 100 μM) was roughly 2 fold, the maximal reporter induction (AhR; approximately 100 nM) was 10-12 fold and the IC50 (HCC1187 cells; Homo sapiens, HCC1187, 72-hour treatment) was 81.7 nM. The “inhibition (cell viability)” value (HCC1187 cells; at <0.5 μM, 72 hours) was greater than 50%, the LD50 [4] was 660 mg/kg and the inhibition of cell viability at 0.1 µM (ST2 cells) was greater than 50%. The “BIK mRNA induction” value (MDA-MB-468 cells [5]) was roughly 1.5 fold, the “BMF mRNA induction” value (MDA-MB-468 cells [5]) was 4-5 fold and the “PMA1P1 mRNA induction” value (MDA-MB-468 cells [5]) was roughly 1.5 fold. The “IER3 mRNA increase” value (MDA-MB-468 cells [5]; 12 hours) was “greater than 6 fold” and the “OSGIN1 mRNA increase” value (MDA-MB-468 cells [5]; 12 hours) was greater than 4 fold.
